Measured values taken from article PMC8963254, “Effects of Lysine N-ζ-Methylation in Ultrashort Tetrabasic Lipopeptides (UTBLPs) on the Potentiation of Rifampicin, Novobiocin, and Niclosamide in Gram-Negative Bacteria” (Antibiotics, 2022).
Where two headings read alike, the source gives them in different places. Residues, ends and D or L forms follow the SMILES beside them. *: point of attachment. Octanoyl = CCCCCCCC(=O)*

Key:
A. baumannii ATCC 17978 [1] = format: cell-based, Acinetobacter baumannii; conditions: ATCC 17978, 18 h
In short: (§1)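 Turbidity at 590 nm defined growth, from which the MIC was taken. Cultures at a final density of 5 × 10^5 CFU/mL were exposed to a range of compound levels at 37 °C for 18 h in a CLSI-based microdilution format.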

E. coli ATCC 25922 [2] = format: cell-based, Escherichia coli; conditions: ATCC 25922, 18 h
In short: as §1

E. faecalis ATCC 29212 = format: cell-based, Enterococcus faecalis; conditions: ATCC 29212, 18 h
In short: as §1

E. faecium ATCC 27270 = format: cell-based, Enterococcus faecium; conditions: ATCC 27270, 18 h
In short: as §1

[3] = test system: P. aeruginosa PA259-96196; test: microbe, parasite or virus in culture; format: cell-based, Pseudomonas aeruginosa; conditions: PA259-96196, 18 h
In short: as §1

[4] = test system: P. aeruginosa PA262-101856; test: microbe, parasite or virus in culture; format: cell-based, Pseudomonas aeruginosa; conditions: PA262-101856, 18 h
In short: as §1

MRSE 61589 [5] = format: cell-based, Staphylococcus epidermidis; conditions: 61589, 18 h
In short: as §1

MSSE 81388 [6] = format: cell-based, Staphylococcus epidermidis; conditions: 18 h
In short: as §1

A. baumannii 92247 = format: cell-based, Acinetobacter baumannii; conditions: for MICUTBLP: UTBLP alone
In short: (§2)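 Checkerboard synergy assay: antibiotic and OMP combined at varying concentrations with 5 × 10^5 CFU/mL inoculum (final), 37 °C, 18 h; growth read as turbidity at 590 nm. FICI = sum of FICs (MIC in combination / MIC alone); ≤0.5 synergistic, 0.5–4 additive, >4 antagonistic.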

A. baumannii AB027 = format: cell-based, Acinetobacter baumannii; conditions: for MICUTBLP: UTBLP alone
In short: as §2

A. baumannii ATCC 17978 [7] = format: cell-based, Acinetobacter baumannii; conditions: for MICUTBLP: UTBLP alone
In short: as §2

E. coli 94393 = format: cell-based, Escherichia coli; conditions: for MICUTBLP: UTBLP alone
In short: as §2

E. coli 94474 = format: cell-based, Escherichia coli; conditions: for MICUTBLP: UTBLP alone
In short: as §2

E. coli ATCC 25922 [8] = format: cell-based, Escherichia coli; conditions: for MICUTBLP: UTBLP alone
In short: as §2

K. pneumoniae 113250 = format: cell-based, Klebsiella pneumoniae; conditions: for MICUTBLP: UTBLP alone
In short: as §2

MRSE 61589 [9] = format: cell-based, Staphylococcus epidermidis
In short: as §2

MSSE 81388 [10] = format: cell-based, Staphylococcus epidermidis
In short: as §2

[11] = UTBLP in combination with novobiocin
[12] = UTBLP in combination with rifampicin
[13] = novobiocin in combination with the UTBLP
[14] = rifampicin in combination with the UTBLP
[15] = UTBLP in combination with chloramphenicol
[16] = UTBLP in combination with niclosamide
[17] = chloramphenicol in combination with the UTBLP
[18] = niclosamide in combination with the UTBLP
[19] = UTBLP alone, plate with chloramphenicol

CCCCCCCC(=O)NCCCC[C@H](NC(=O)CCCCCCC)C(=O)N[C@@H](CCCCN)C(=O)N[C@@H](CCCCN)C(=O)N[C@@H](CCCCN)C(=O)N[C@@H](CCCCN)C(N)=O [UTBLP 5] (Octanoyl-K(Octanoyl)KKKK-NH2)
0.125 µg/mL: MICantibiotic [MICcombo] (A. baumannii 92247; [13]) | MICantibiotic [MICcombo] (A. baumannii ATCC 17978 [7]; [13]) | MICantibiotic [MICcombo] (E. coli 94393; [14])
4 µg/mL: MICUTBLP [MICcombo] (A. baumannii ATCC 17978 [7]; [15]) | MICUTBLP [MICcombo] (E. coli 94393; [12]) | MICUTBLP [MICcombo] (E. coli 94474; [11]) | MICUTBLP [MICcombo] (MRSE 61589 [9]; [15]) | MICchloramphenicol [MICcombo] (MRSE 61589 [9]; [17])
32 µg/mL: MIC (E. faecalis ATCC 29212) | MIC (E. faecium ATCC 27270) | MICUTBLP (A. baumannii 92247; plate with novobiocin) | MICUTBLP (A. baumannii 92247; plate with rifampicin) | MICantibiotic [MICcombo] (A. baumannii ATCC 17978 [7]; [17]) | MICUTBLP (E. coli 94393; plate with novobiocin) | MICUTBLP (E. coli 94393; plate with rifampicin)
> 128 µg/mL: MIC [4] | MICUTBLP (K. pneumoniae 113250; plate with novobiocin) | MICUTBLP (K. pneumoniae 113250; plate with rifampicin)
8 µg/mL: MIC (MRSE 61589 [5]) | MICUTBLP [MICcombo] (K. pneumoniae 113250; [12]) | MICUTBLP (MRSE 61589 [9]; [19]) | MICUTBLP [MICcombo] (MSSE 81388 [10]; [15])
1 µg/mL: MICUTBLP [MICcombo] (A. baumannii 92247; [11]) | MICUTBLP [MICcombo] (A. baumannii AB027; [11]) | MICUTBLP [MICcombo] (A. baumannii ATCC 17978 [7]; [12]) | MICantibiotic [MICcombo] (A. baumannii ATCC 17978 [7]; [18]) | MICUTBLP [MICcombo] (E. coli 94393; [11]) | MICantibiotic [MICcombo] (E. coli 94474; [13]) | MICUTBLP [MICcombo] (E. coli ATCC 25922 [8]; [11]) | MICantibiotic [MICcombo] (K. pneumoniae 113250; [13])
0.031 µg/mL: MICantibiotic [MICcombo] (A. baumannii ATCC 17978 [7]; [14])
16 µg/mL: MIC (MSSE 81388 [6]) | MICUTBLP [MICcombo] (E. coli ATCC 25922 [8]; [15]) | MICUTBLP [MICcombo] (K. pneumoniae 113250; [11]) | MICUTBLP (MSSE 81388 [10]; [19])
0.016 µg/mL: MICantibiotic [MICcombo] (A. baumannii AB027; [14])
128 µg/mL: MIC [3] | MICUTBLP (A. baumannii AB027; plate with novobiocin) | MICUTBLP (A. baumannii AB027; plate with rifampicin) | MICUTBLP (E. coli 94474; plate with novobiocin) | MICUTBLP (E. coli 94474; plate with rifampicin)
0.063 µg/mL: MICantibiotic [MICcombo] (A. baumannii 92247; [14]) | MICantibiotic [MICcombo] (E. coli ATCC 25922 [8]; [14])
Additive (0.5 < x ≤ 4 is additive): Interpretation (A. baumannii ATCC 17978 [7]; UTBLP + chloramphenicol) | Interpretation (MRSE 61589 [9]; UTBLP + chloramphenicol) | Interpretation (MSSE 81388 [10]; UTBLP + chloramphenicol)
64 µg/mL: MIC (A. baumannii ATCC 17978 [1]) | MIC (E. coli ATCC 25922 [2]) | MICUTBLP (A. baumannii ATCC 17978 [7]; plate with chloramphenicol) | MICUTBLP (A. baumannii ATCC 17978 [7]; plate with niclosamide) | MICUTBLP (A. baumannii ATCC 17978 [7]; plate with novobiocin) | MICUTBLP (A. baumannii ATCC 17978 [7]; plate with rifampicin) | MICUTBLP (E. coli ATCC 25922 [8]; plate with chloramphenicol) | MICUTBLP (E. coli ATCC 25922 [8]; plate with niclosamide) | MICUTBLP (E. coli ATCC 25922 [8]; plate with novobiocin) | MICUTBLP (E. coli ATCC 25922 [8]; plate with rifampicin)
0.25 µg/mL: MICantibiotic [MICcombo] (A. baumannii AB027; [13]) | MICantibiotic [MICcombo] (E. coli 94474; [14]) | MICantibiotic [MICcombo] (E. coli ATCC 25922 [8]; [17]) | MICchloramphenicol [MICcombo] (MSSE 81388 [10]; [17])
Synergy (FICI ≤ 0.5 is synergistic): Interpretation (A. baumannii 92247; UTBLP + novobiocin) | Interpretation (A. baumannii 92247; UTBLP + rifampicin) | Interpretation (A. baumannii AB027; UTBLP + novobiocin) | Interpretation (A. baumannii AB027; UTBLP + rifampicin) | Interpretation (A. baumannii ATCC 17978 [7]; UTBLP + niclosamide) | Interpretation (A. baumannii ATCC 17978 [7]; UTBLP + novobiocin) | Interpretation (A. baumannii ATCC 17978 [7]; UTBLP + rifampicin) | Interpretation (E. coli 94393; UTBLP + novobiocin) | Interpretation (E. coli 94393; UTBLP + rifampicin) | Interpretation (E. coli 94474; UTBLP + novobiocin) | Interpretation (E. coli 94474; UTBLP + rifampicin) | Interpretation (E. coli ATCC 25922 [8]; UTBLP + chloramphenicol) | Interpretation (E. coli ATCC 25922 [8]; UTBLP + niclosamide) | Interpretation (E. coli ATCC 25922 [8]; UTBLP + novobiocin) | Interpretation (E. coli ATCC 25922 [8]; UTBLP + rifampicin) | Interpretation (K. pneumoniae 113250; UTBLP + novobiocin) | Interpretation (K. pneumoniae 113250; UTBLP + rifampicin)
0.5 µg/mL: MICUTBLP [MICcombo] (A. baumannii ATCC 17978 [7]; [16]) | MICUTBLP [MICcombo] (E. coli ATCC 25922 [8]; [16]) | MICantibiotic [MICcombo] (E. coli ATCC 25922 [8]; [13]) | MICantibiotic [MICcombo] (K. pneumoniae 113250; [14])
2 µg/mL: MICUTBLP [MICcombo] (A. baumannii 92247; [12]) | MICUTBLP [MICcombo] (A. baumannii AB027; [12]) | MICUTBLP [MICcombo] (A. baumannii ATCC 17978 [7]; [11]) | MICantibiotic [MICcombo] (E. coli 94393; [13]) | MICUTBLP [MICcombo] (E. coli 94474; [12]) | MICUTBLP [MICcombo] (E. coli ATCC 25922 [8]; [12]) | MICantibiotic [MICcombo] (E. coli ATCC 25922 [8]; [18])
